Experimental data: ChEMBL document CHEMBL5257055, “Contemporary Progress and Opportunities in RNA-Targeted Drug Discovery” (ACS Med Chem Lett, 2023)
Numbered stars: 1 amine (or outer) side, 2 acyl side, 3 side chain; on linkers, the order of the positions; unused ones are H or OH. Bridge positions count the residues as written; N and C are the ends. Peptide text beside a SMILES is read from it. X1 = CCC(C)CCCCCCCCC(CC(=O)[*:1])O[*:2]

How the values were obtained:
[1] = Binding affinity to CUG repeat RNA (unknown origin) assessed as dissociation constant
[2] = Binding affinity to CAG repeat RNA (unknown origin) assessed as dissociation constant
[3] = Binding affinity to pre-miR-544 (unknown origin) assessed as dissociation constant
[4] = Binding affinity to HCV IRES; design: species or system Hepacivirus hominis
[5] = Binding affinity to pre-miR-210 (unknown origin) assessed as dissociation constant
[6] = Binding affinity to CGG repeat RNA (unknown origin) assessed as dissociation constant
[7] = Binding affinity to pre-miR-96 (unknown origin) assessed as dissociation constant
[8] = Binding affinity to SARS-CoV-2 Attenuator hairpin RNA by MST assay; design: species or system Severe acute respiratory syndrome coronavirus 2
[9] = Binding affinity to pre-miR-200c (unknown origin) assessed as dissociation constant
[10] = Binding affinity to HCV RNA; design: species or system Hepacivirus hominis
[11] = test system: FMN riboswitch; test: Binding affinity to Escherichia coli FMN riboswitch RNA assessed as dissociation constant; type: nucleic-acid assay
[12] = Binding affinity to pre-miR-27a (unknown origin) assessed as dissociation constant
[13] = Binding affinity to XIST RNA (unknown origin)
[14] = Binding affinity to preQ1
[15] = Binding affinity to mouse MALAT1 assessed as dissociation constant
[16] = Binding affinity to pre-miR-21 (unknown origin) assessed as dissociation constant
[17] = biological target: T1, Sulfhydryl oxidase 1 (Homo sapiens, UniProt O00391); test: Binding affinity to QSOX1 (unknown origin) assessed as dissociation constant
T1 sequence (O00391 whole entry): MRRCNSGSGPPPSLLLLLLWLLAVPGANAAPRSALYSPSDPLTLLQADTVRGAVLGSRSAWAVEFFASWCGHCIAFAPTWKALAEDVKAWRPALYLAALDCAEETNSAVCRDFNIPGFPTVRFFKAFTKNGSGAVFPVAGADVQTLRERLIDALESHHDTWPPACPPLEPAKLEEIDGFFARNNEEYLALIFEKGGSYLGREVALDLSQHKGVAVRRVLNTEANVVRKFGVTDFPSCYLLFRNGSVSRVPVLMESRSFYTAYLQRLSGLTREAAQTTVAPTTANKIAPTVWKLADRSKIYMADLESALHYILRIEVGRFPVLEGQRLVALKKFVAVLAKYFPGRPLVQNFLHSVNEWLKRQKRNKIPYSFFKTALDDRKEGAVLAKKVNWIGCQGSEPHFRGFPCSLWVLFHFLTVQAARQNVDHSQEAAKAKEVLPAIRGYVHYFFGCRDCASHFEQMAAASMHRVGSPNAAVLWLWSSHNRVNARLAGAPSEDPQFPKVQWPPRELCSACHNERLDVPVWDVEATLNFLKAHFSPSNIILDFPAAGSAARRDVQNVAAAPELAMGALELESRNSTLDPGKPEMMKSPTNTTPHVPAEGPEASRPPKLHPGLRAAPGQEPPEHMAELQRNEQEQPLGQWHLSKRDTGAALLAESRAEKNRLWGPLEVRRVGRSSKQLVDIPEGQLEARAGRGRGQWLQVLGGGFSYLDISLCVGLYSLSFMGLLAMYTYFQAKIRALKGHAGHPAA

[18] = Binding affinity to r(AUUCA) repeat RNA (unknown origin) assessed as dissociation constant
[19] = Binding affinity to pre-mRNA (unknown origin)
[20] = Binding affinity to HIV-1 RNA assessed as dissociation constant; design: species or system Human immunodeficiency virus 1

N#Cc1c(N2CCCC2)nc(N)c2c(N)nc(N3CCCC3)cc12
Kd [1]: 0.125 µM | Kd [2]: 1.4 µM | Kd [3]: 1 µM

CN(C)CC1COc2ccc3nc4n(c3c2C1)CC(CN(C)C)CN4 (stereo not drawn)
Kd [4]: 0.72 µM

CN1CCN(c2ccc3nc(-c4ccc5[nH]c(-c6cccc(OCCCC(=O)NCCCN=[N+]=[N-])c6)nc5c4)[nH]c3c2)CC1
Kd [5]: 1.7 µM | Kd [6]: 0.375 µM | Kd [1]: 0.15 µM | Kd [7]: 1.5 µM

CNc1nc(Nc2cccc(C(=O)O)c2)nc2ccccc12
Kd [8]: 0.011 µM

O=C(Nc1ccc(C2=NCCN2)cc1)c1cc(C(=O)Nc2ccc(C3=NCCN3)cc2)cc(C(=O)Nc2ccc(C3=NCCN3)cc2)c1
Kd [9]: 1.1 µM | Kd [10]: 0.849 µM

CNc1ncc(CN2CCCC(c3nc(O)cc(-c4cccs4)n3)C2)cn1 (stereo not drawn)
Kd [11]: 0.016 µM

C#CCN(CC(N)=O)C(=O)C[C@@H](Cc1c[nH]c2ccccc12)NC(=O)[C@H]1CC(NC(=O)Cn2c(=O)[nH]c3ccccc3c2=O)CN1 (stereo partly drawn)
Kd [12]: 0.09 µM

c1ccc(COc2cccc(-c3ccc4[nH]nc(-c5nc6ccccc6[nH]5)c4c3)c2)cc1
Kd [13]: 0.4 µM

NCCOc1ccc2oc3ccccc3c2c1
Kd [14]: 0.5 µM

O=C(NCCN1CCCC1)c1ccc2oc(C(=O)c3cc(O)c(O)c(O)c3)cc2c1
Kd [4]: 0.36 µM

COc1ccc(-c2cnc(NCc3cccc(OC)c3)n2C)cc1
Kd [15]: 2.9 µM

NC(=O)CNC(=O)[C@H](Cc1ccc(Cl)cc1)NC(=O)c1ccc2nc(-c3ccccc3)[nH]c2c1
Kd [1]: 6.3 µM

CN(C)c1nc(N)c(C(=O)NC(=N)N)nc1C#Cc1ccccc1
Kd [4]: 0.52 µM

C#CCCC1(CCC(=O)Nc2ccc(OC)c(OCc3cn4ccccc4n3)c2)N=N1
Kd [16]: 0.256 µM

C#CCCC1(CCC(=O)N(C)[C@@H]2CC[C@H](c3ccc(Cl)c(Cl)c3)c3ccccc32)N=N1
Kd [17]: 16 µM

Cc1ccc(C(=O)N2Cc3ccccc3C[C@H]2C(N)=O)cc1NCc1c(F)ccc(O)c1F
Kd [12]: 0.094 µM

CCC(C)CCCCCCCCC1CC(=O)N[C@@H](CCC(=O)O)C(=O)N[C@@H](CC(C)C)C(=O)N[C@@H](CC(C)C)C(=O)N[C@@H](C(C)C)C(=O)N[C@@H](CC(=O)O)C(=O)N[C@@H](CC(C)C)C(=O)N[C@@H](CC(C)C)C(=O)O1 (stereo partly drawn) (ELLVDLL; linker N-C via X1)
Kd [16]: 0.78 µM

N=C(N)c1ccc(-c2ccc(-c3ccc(C(=N)N)cc3)o2)cc1 [FURAMIDINE]
Kd [18]: 0.17 µM | Kd [15]: 0.56 µM

O=C1c2c(O)ccc(O)c2C(=O)c2c(NCCNCCO)ccc(NCCNCCO)c21 [MITOXANTRONE]
Kd [19]: < 1 µM | Kd [16]: 0.033 µM

CC(=O)c1c(C)c2cnc(Nc3ccc(N4CCNCC4)cn3)nc2n(C2CCCC2)c1=O [PALBOCICLIB]
Kd [20]: 0.104 µM
